Laboratory results taken from PubChem BioAssay AID330 (DTP/NCI, 2004).
Several values for one entry are separate records, joined by “and”; a condition that tells them apart may be missing. Identical values can stand only once. Inconclusive results and toxic doses are left out.

Test system: P388 leukemia ip, CD2F1 mice, survival T/C
Experiment: NCI In Vivo Anticancer Drug Screen. Data for tumor model P388 Leukemia (intraperitoneal) in CD2F1 (CDF1) mice
Conditions: endpoint: median survival time, higher = longer survival
In short: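 Mice carrying the transplanted tumor received test compound or vehicle. Survival was recorded in each group, and the value is the treated-group measurement divided by that of the vehicle-treated control group.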

[1] = dose: 25.0 mg/kg/injection, schedule: Q04DX003 (ip), vehicle: saline with Tween-80
[2] = dose: 50.0 mg/kg/injection, schedule: Q04DX003 (ip), vehicle: saline with Tween-80
[3] = dose: 50.0 mg/kg/injection, schedule: Q01DX005 (ip), vehicle: saline with Tween-80
[4] = dose: 100.0 mg/kg/injection, schedule: Q01DX005 (ip), vehicle: saline with Tween-80
[5] = dose: 200.0 mg/kg/injection, schedule: Q01DX005 (ip), vehicle: saline with Tween-80
[6] = dose: 60.0 mg/kg/injection, schedule: Q01DX005 (ip), vehicle: saline with Tween-80
[7] = dose: 120.0 mg/kg/injection, schedule: Q01DX005 (ip), vehicle: saline with Tween-80
[8] = dose: 240.0 mg/kg/injection, schedule: Q01DX005 (ip), vehicle: saline with Tween-80
[9] = dose: 100.0 mg/kg/injection, schedule: Q04DX003 (ip), vehicle: saline with Tween-80
[10] = dose: 100.0 mg/kg/injection, schedule: Q01DX009 (ip), vehicle: saline
[11] = dose: 200.0 mg/kg/injection, schedule: Q01DX009 (ip), vehicle: saline
[12] = dose: 50.0 mg/kg/injection, schedule: Q01DX009 (ip), vehicle: saline

In the case of `Cc1cccnc1Nc1ncccc1C`, the T/C (dose: 60.0 mg/kg/injection, schedule: Q01DX005 (ip), vehicle: saline) is reported as 102 % of control, the T/C (dose: 120.0 mg/kg/injection, schedule: Q01DX005 (ip), vehicle: saline) is reported as 102 % of control and the T/C (dose: 240.0 mg/kg/injection, schedule: Q01DX005 (ip), vehicle: saline) is reported as 102 % of control.

In the case of `CCC1=[N+](C)C(C)(C)CC(C)O1` (stereo unspecified), the T/C (dose: 12.5 mg/kg/injection, schedule: Q04DX003 (ip), vehicle: saline with Tween-80) is reported as 100 % of control, the T/C [1] is reported as 100 % of control and the T/C [2] is reported as 95 % of control.

In the case of `CC1=Cc2cc(C)cc(C)c2C1=O`, the T/C [3] is reported as 90 % of control, the T/C [4] is reported as 93 % of control and the T/C [5] is reported as 96 % of control.

`COc1ccc(OC)c(CC(CC(=O)O)C(C)=O)c1` (stereo unspecified) was tested, and the T/C (dose: 25.0 mg/kg/injection, schedule: Q01DX009 (ip), vehicle: other) was 97 % of control, the T/C (dose: 50.0 mg/kg/injection, schedule: Q01DX009 (ip), vehicle: other) was 100 % of control and the T/C (dose: 100.0 mg/kg/injection, schedule: Q01DX009 (ip), vehicle: other) was 100 % of control. For the same compound, the T/C (dose: 200.0 mg/kg/injection, schedule: Q01DX009 (ip), vehicle: other) was 101 % of control and the T/C (dose: 400.0 mg/kg/injection, schedule: Q01DX009 (ip), vehicle: other) was 108 % of control.

In the case of `c1ccc(-c2nc3ccccc3nc2-c2ccc(-c3nc4ccccc4nc3-c3ccccc3)cc2)cc1`, the T/C (dose: 6.25 mg/kg/injection, schedule: Q01DX009 (ip), vehicle: saline with Tween-80) is reported as 112 % of control and the T/C (dose: 12.5 mg/kg/injection, schedule: Q01DX009 (ip), vehicle: saline with Tween-80) is reported as 90 % of control.

With `CCc1cccc(CC)c1N1C(=O)C=CC1=O` the T/C (dose: 0.5 mg/kg/injection, schedule: Q01DX009 (ip), vehicle: Klucel (hydroxypropylcellulose) (HPC)) was 104 % of control, the T/C (dose: 1.0 mg/kg/injection, schedule: Q01DX009 (ip), vehicle: Klucel (hydroxypropylcellulose) (HPC)) was 99 % of control and the T/C (dose: 2.0 mg/kg/injection, schedule: Q01DX009 (ip), vehicle: Klucel (hydroxypropylcellulose) (HPC)) was 100 % of control. The T/C (dose: 4.0 mg/kg/injection, schedule: Q01DX009 (ip), vehicle: Klucel (hydroxypropylcellulose) (HPC)) was 105 % of control, the T/C (dose: 8.0 mg/kg/injection, schedule: Q01DX009 (ip), vehicle: Klucel (hydroxypropylcellulose) (HPC)) was 101 % of control and the T/C (dose: 16.0 mg/kg/injection, schedule: Q01DX009 (ip), vehicle: Klucel (hydroxypropylcellulose) (HPC)) was 96 % of control.

For `CC(=O)CCS(=O)Cc1ccccc1` (stereo unspecified), the T/C [6] was 103 % of control, the T/C [7] was 98 % of control and the T/C [8] was 111 % of control.

In the case of `COC1(OC)CCN2OC(CO)CC21` (stereo unspecified), the T/C [1] is reported as 103 % of control, the T/C [2] is reported as 100 % of control and the T/C [9] is reported as 100 % of control and 101 % of control.

`Cc1ccc(/C(=N/NS(=O)(=O)c2ccc(C)cc2)C(C)c2ccccc2)cc1` (stereo unspecified) was tested, and the T/C (dose: 100.0 mg/kg/injection, schedule: Q01DX001 (ip), vehicle: Klucel (hydroxypropylcellulose) (HPC)) was 99 % of control, the T/C (dose: 200.0 mg/kg/injection, schedule: Q01DX001 (ip), vehicle: Klucel (hydroxypropylcellulose) (HPC)) was 100 % of control and the T/C (dose: 400.0 mg/kg/injection, schedule: Q01DX001 (ip), vehicle: Klucel (hydroxypropylcellulose) (HPC)) was 99 % of control.

`Cc1cccc2c(Nc3ccc(NS(C)(=O)=O)cc3)c3ccccc3nc12` was tested, and the T/C (dose: 0.53 mg/kg/injection, schedule: Q01DX009 (ip), vehicle: saline) was 111 % of control, the T/C (dose: 0.8 mg/kg/injection, schedule: Q01DX009 (ip), vehicle: saline) was 124 % of control and the T/C (dose: 7.5 mg/kg/injection, schedule: Q01DX009 (ip), vehicle: saline with Tween-80) was 166 % of control. The T/C (dose: 33.0 mg/kg/injection, schedule: Q04DX003 (ip), vehicle: saline with Tween-80) was 168 % of control, the T/C [2] was 163 % of control and the T/C (dose: 75.0 mg/kg/injection, schedule: Q04DX003 (ip), vehicle: saline with Tween-80) was 163 % of control and 181 % of control. For the same compound, the T/C (dose: 150.0 mg/kg/injection, schedule: Q04DX003 (ip), vehicle: saline with Tween-80) was 181 % of control and the T/C (dose: 300.0 mg/kg/injection, schedule: Q04DX003 (ip), vehicle: saline with Tween-80) was 122 % of control.

`c1ccc2nc(N3CCCCC3)c(N3CCCCCC3)nc2c1` was tested, and the T/C (dose: 50.0 mg/kg/injection, schedule: Q01DX005 (ip), vehicle: Klucel (hydroxypropylcellulose) (HPC)) was 97 % of control, the T/C (dose: 100.0 mg/kg/injection, schedule: Q01DX005 (ip), vehicle: Klucel (hydroxypropylcellulose) (HPC)) was 100 % of control and the T/C (dose: 200.0 mg/kg/injection, schedule: Q01DX005 (ip), vehicle: Klucel (hydroxypropylcellulose) (HPC)) was 99 % of control.

For `COc1cccc2c1C(=O)c1c(O)c3c(c(O)c1C2=O)CC(O)(C(C)=O)CC3OC1CCN(c2ccccc2)CC(C)O1` (stereo unspecified), the T/C (dose: 3.13 mg/kg/injection, schedule: Q04DX003 (ip), vehicle: distilled water + Tween-80) was 96 % of control, the T/C (dose: 6.25 mg/kg/injection, schedule: Q04DX003 (ip), vehicle: distilled water + Tween-80) was 98 % of control and the T/C (dose: 12.5 mg/kg/injection, schedule: Q04DX003 (ip), vehicle: distilled water + Tween-80) was 100 % of control. The T/C (dose: 25.0 mg/kg/injection, schedule: Q04DX003 (ip), vehicle: distilled water + Tween-80) was 98 % of control and the T/C (dose: 50.0 mg/kg/injection, schedule: Q04DX003 (ip), vehicle: distilled water + Tween-80) was 105 % of control.

For `O=C/C=C/C=C/C=C/c1ccccc1`, the T/C (dose: 60.0 mg/kg/injection, schedule: Q01DX005 (ip), vehicle: distilled water + alcohol) was 100 % of control, the T/C (dose: 120.0 mg/kg/injection, schedule: Q01DX005 (ip), vehicle: distilled water + alcohol) was 100 % of control and the T/C (dose: 240.0 mg/kg/injection, schedule: Q01DX005 (ip), vehicle: distilled water + alcohol) was 96 % of control.

In the case of `CCN(CC)CCCN1CC(=O)N2CCCCN2C(=O)C1`, the T/C (dose: 50.0 mg/kg/injection, schedule: Q01DX005 (ip), vehicle: saline) is reported as 102 % of control, the T/C (dose: 100.0 mg/kg/injection, schedule: Q01DX005 (ip), vehicle: saline) is reported as 100 % of control and the T/C (dose: 200.0 mg/kg/injection, schedule: Q01DX005 (ip), vehicle: saline) is reported as 100 % of control.

`O=C1OC(C(F)(F)F)=NC1Cc1ccccc1` (stereo unspecified) was tested, and the T/C [9] was 107 % of control, the T/C (dose: 200.0 mg/kg/injection, schedule: Q04DX003 (ip), vehicle: saline with Tween-80) was 98 % of control and the T/C (dose: 400.0 mg/kg/injection, schedule: Q04DX003 (ip), vehicle: saline with Tween-80) was 101 % of control.

With `COc1cccc2c1C(=O)c1c(O)c3c(c(O)c1C2=O)C[C@](O)(C(=O)CO)CC3OC1CC(N)C(OC2CCCCO2)C(C)O1` (stereo partly specified) the T/C (dose: 0.78 mg/kg/injection, schedule: Q04DX003 (ip), vehicle: water) was 122 % of control, the T/C (dose: 3.12 mg/kg/injection, schedule: Q04DX003 (ip), vehicle: water) was 153 % of control and 240 % of control and the T/C (dose: 3.13 mg/kg/injection, schedule: Q04DX003 (ip), vehicle: water) was 161 % of control. For the same compound, the T/C (dose: 3.75 mg/kg/injection, schedule: Q01DX005 (ip), vehicle: water) was 154 % of control, the T/C (dose: 6.25 mg/kg/injection, schedule: Q04DX003 (ip), vehicle: water) was 192 % of control and 200 % of control and 280 % of control and the T/C (dose: 7.5 mg/kg/injection, schedule: Q01DX005 (ip), vehicle: water) was 151 % of control. The T/C (dose: 12.5 mg/kg/injection, schedule: Q04DX003 (ip), vehicle: water) was 154 % of control and 416 % of control, the T/C (dose: 15.0 mg/kg/injection, schedule: Q01DX005 (ip), vehicle: water) was 196 % of control and the T/C (dose: 25.0 mg/kg/injection, schedule: Q04DX003 (ip), vehicle: water) was 91 % of control. The T/C (dose: 50.0 mg/kg/injection, schedule: Q04DX003 (ip), vehicle: water) was 87 % of control.

For `O=C(CC1=NC2NN(c3ccccc3)C(=O)C2=C1CC(=O)c1ccc([N+](=O)[O-])cc1)c1ccc([N+](=O)[O-])cc1` (stereo unspecified), the T/C [6] was 99 % of control, the T/C [7] was 105 % of control and the T/C [8] was 104 % of control.

For `COc1cccc(O)c1O`, the T/C [10] was 101 % of control, the T/C [11] was 100 % of control and the T/C (dose: 400.0 mg/kg/injection, schedule: Q01DX009 (ip), vehicle: saline) was 111 % of control.

With `O=S(=O)(O)c1ccc2cccc(N=Nc3c(O)ccc4ccccc34)c2c1` the T/C (dose: 12.5 mg/kg/injection, schedule: Q01DX009 (ip), vehicle: saline) was 104 % of control, the T/C (dose: 25.0 mg/kg/injection, schedule: Q01DX009 (ip), vehicle: saline) was 101 % of control and the T/C [12] was 93 % of control.

`COCCCN(Cc1cc(OC)c(OC)c(OC)c1)C(=S)Nc1cccc(SC)c1` was tested, and the T/C [12] was 101 % of control, the T/C [10] was 100 % of control and the T/C [11] was 99 % of control.

For `Cn1c(=O)ccc2c(=O)c3c(ccc4ccccc43)oc21`, the T/C [3] was 94 % of control, the T/C [4] was 92 % of control and the T/C [5] was 91 % of control.
